Measured values from patent US8835644B2, “Broad spectrum benzothiophene-nitrothiazolide and other antimicrobials” (University of Virginia Patent Foundation, priority 2009, dated 2014).
In brackets after ≈: the same amount, converted by molar mass. Like-named read-outs stand apart in the source and are kept apart here.

Legend:
C. difficile [1] = test: MIC by agar dilution, C. difficile; format: cell-based, Clostridium difficile
Experimental: A standard broth dilution protocol was used in 96 well microplates containing a standard dilution of the microorganism to be tested in 100 microliters of the appropriate medium. Appropriate medium: E. coli, LB medium; Staphylococcus strains, Trypticase Soy; and for H. pylori and C. jejuni, Brain Heart Infusion. The compounds to be tested were set at 32 μg/ml in 200 microliters in well one and then serially diluted to provide a range from 32 to 0.06. The wells were scored visually at 24 h. The well where there was no growth was recorded as the MIC. […]
(§1) Representative compounds of the invention were tested in a series of assays against a series of organisms as described above. […] The organisms tested include, C. difficile, H. pylori, C. jejuni, MRSA, S. epidermidis, and E. coli. S. epidermidis and E. coli were tested in the plank and biofilm assay. A disk diffusion assay was also used for C. difficile. Direct PFOR enzyme assays were also performed. All analogues and derivatives were not tested on every organism in every type of assay (the “-” in each table means that it was not tested).

H. pylori = test: MIC testing by broth dilution, H. pylori; format: cell-based, Helicobacter pylori
Procedure, shortened: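 Helicobacter pylori was tested using a standard broth dilution method in 96 well microplates, each well holding a standard dilution of the organism in 100 microliters of Brain Heart Infusion. Compounds started at 32 μg/ml in 200 microliters in the first well and were serially diluted from 32 to 0.06. Wells were read visually at 24 h, and the MIC was the well with no growth.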

C. jejuni = test: MIC testing by broth dilution, C. jejuni; format: cell-based, Campylobacter jejuni
Procedure, shortened: (§2)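 Compounds were diluted serially from 32 μg/ml to 0.06 in medium holding a standard inoculum, then visually scored at 24 h, and the lowest well without growth was recorded. Media were LB for E. coli, Trypticase Soy for S. epidermidis and Brain Heart Infusion for C. jejuni. C. difficile zones were measured anaerobically relative to NTZ.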

MRSA = test: MIC testing by broth dilution, MRSA; format: cell-based, Staphylococcus aureus
Procedure, shortened: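 Values are broth-dilution MICs, defined as the well showing no growth on visual reading after 24 h; the tested range was 32 to 0.06 μg/ml, in organism-specific media (LB, Trypticase Soy, Brain Heart Infusion). The C. difficile entries come instead from anaerobic Kirby-Bauer disk zones, normalised to NTZ.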

S. epidermidis = test: MIC testing by broth dilution, S. epidermidis plank; format: cell-based, Staphylococcus epidermidis
Procedure, shortened: as §2

S. epidermidis biofilm = S. epidermidis biofilm assay (activity tables); format: cell-based, Staphylococcus epidermidis; conditions: for MIC S. epidermidis Biofilm: Thiophene analogues table
Procedure, shortened: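 Overnight TSB cultures diluted to OD600 0.01 and grown static with compound (triplicate) at 37° C for 16 h; turbidity recorded for growth. Biofilm: washed wells ethanol-fixed, stained with 0.5% crystal violet, A570 read before and after 95% ethanol extraction; mean ± SD.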

E. coli = test: MIC testing by broth dilution, E. coli plank; format: cell-based, Escherichia coli
Procedure, shortened: as §2

E. coli biofilm = E. coli biofilm assay (activity tables); format: cell-based, Escherichia coli
Procedure, shortened: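 E. coli strain 042 inoculated 1:100 with NTZ-containing medium and grown statically at 37 °C for 24 h. Growth measured by turbidity or plate counts (cfu/ml); biofilm stained with 0.5% crystal violet and read at 570 nm; triplicate, mean ± SD.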

C. difficile [2] = test: Disk diffusion (Kirby Bower), C. difficile; format: cell-based, Clostridium difficile; conditions: for Disk Diff (%) C. difficile: Nitazoxanide = 100, Thiophene analogues table; for Disk Diffusion (%) C. difficile: zone of inhibited growth as relative ratio to the zone for NTZ
Procedure, shortened: as §2

[3] = system: PFOR (pyruvate ferredoxin oxidoreductase); test: Direct PFOR enzyme assay; format: biochemical
Experimental: as §1

[4] = Thiophene analogues table, read-out: MIC C. difficile
[5] = Thiophene analogues table, read-out: MIC H. pylori
[6] = Thiophene analogues table, read-out: MIC C. jejuni
[7] = Thiophene analogues table, read-out: MIC MRSA
[8] = planktonic, Thiophene analogues table, read-out: MIC S. epidermidis Plank
[9] = planktonic, Thiophene analogues table, read-out: MIC E. coli Plank
[10] = biofilm, Thiophene analogues table, read-out: MIC E. coli Biofilm

MIC S. epidermidis Biofilm (S. epidermidis biofilm) [µM] | PFOR inhibition relative to nitazoxanide (=100) ([3]; Thiophene analogues table) [%] | Structure (SMILES) | MIC (C. difficile [1]; [4]) [µM] | MIC (H. pylori; [5]) [µM] | MIC (C. jejuni; [6]) [µM] | MIC (MRSA; [7]) [µM] | MIC (S. epidermidis; [8]) [µM] | MIC (E. coli; [9]) [µM] | MIC (E. coli biofilm; [10]) [µM] | Disk Diff (%) C. difficile (C. difficile [2]) [%] | MIC (μM) S. epidermidis Biofilm (S. epidermidis biofilm) [µM] | Disk Diffusion (%) C. difficile (C. difficile [2]) [%] | PFOR inhibition relative to nitazoxanide (=100) [3] [%] | also measured
 |  | O=C(Nc1ncc([N+](=O)[O-])s1)c1cccc(C(F)(F)F)c1 [VPC161183, N-(5-Nitrothiazol-2-yl)-3-(trifluoromethyl)benzamide] |  |  |  |  |  |  |  |  | 25.2 (≈ 7.99 µg/mL) | 95 ± 2 | 87 | MIC (C. difficile [1]; Clostridioides difficile, read-out: MIC (μM) C. difficile): 12.6 µM (≈ 4 µg/mL); MIC (H. pylori; Helicobacter pylori, 24 h, read-out: MIC (μM) H. pylori): 3.5 µM (≈ 1.11 µg/mL); MIC (C. jejuni; Campylobacter jejuni, 24 h, read-out: MIC (μM) C. jejuni): 4.7 µM (≈ 1.49 µg/mL); MIC (MRSA; Staphylococcus aureus, MRSA, 24 h, read-out: MIC (μM) MRSA): 3.2 µM (≈ 1.02 µg/mL); MIC (E. coli; Escherichia coli, 24 h, read-out: MIC (μM) E. coli Plank): 37.8 µM (≈ 12 µg/mL); MIC (E. coli biofilm; Escherichia coli, read-out: MIC (μM) E. coli Biofilm): 31.5 µM (≈ 9.99 µg/mL)
 |  | COc1cccc(C(=O)Nc2ncc([N+](=O)[O-])s2)c1 [VPC161193] |  |  |  |  |  |  |  |  | 57.3 (≈ 16 µg/mL) | 73 ± 1 | 82 | MIC (C. difficile [1]; agar dilution, anaerobic, Wilkins Chalgrin agar, read-out: MIC (μM) C. difficile): 28.6 µM (≈ 7.99 µg/mL); MIC (H. pylori; broth dilution, Brain Heart Infusion, 24 h, read-out: MIC (μM) H. pylori): 1.3 µM (≈ 0.363 µg/mL); MIC (C. jejuni; broth dilution, Brain Heart Infusion, 24 h, read-out: MIC (μM) C. jejuni): 7.2 µM (≈ 2.01 µg/mL); MIC (MRSA; broth dilution, Trypticase Soy, 24 h, read-out: MIC (μM) MRSA): 14.3 µM (≈ 3.99 µg/mL); MIC (S. epidermidis; broth dilution, Trypticase Soy, 24 h, read-out: MIC (μM) S. epidermidis Plank): 28.6 µM (≈ 7.99 µg/mL); MIC (E. coli; broth dilution, LB medium, 24 h, read-out: MIC (μM) E. coli Plank): 114.6 µM (≈ 32 µg/mL); MIC (E. coli biofilm; biofilm, read-out: MIC (μM) E. coli Biofilm): 114.6 µM (≈ 32 µg/mL)
62.7 (≈ 16 µg/mL) | 88 | O=C(Nc1ncc([N+](=O)[O-])s1)c1cccs1 [VPC161195, N-(5-Nitrothiazol-2-yl)thiophene-2-carboxamide] |  |  |  |  |  |  |  | 97 |  |  |  | MIC (C. difficile [1]; Clostridioides difficile, Thiophene analogues table, read-out: MIC C. difficile): 31.3 µM (≈ 7.99 µg/mL); MIC (H. pylori; Helicobacter pylori, Thiophene analogues table, read-out: MIC H. pylori): 2.9 µM (≈ 0.74 µg/mL); MIC (C. jejuni; Campylobacter jejuni, Thiophene analogues table, read-out: MIC C. jejuni): 2.9 µM (≈ 0.74 µg/mL); MIC (MRSA; Staphylococcus aureus, MRSA, Thiophene analogues table, read-out: MIC MRSA): 15.7 µM (≈ 4.01 µg/mL); MIC (E. coli; Escherichia coli, planktonic, Thiophene analogues table, read-out: MIC E. coli Plank): 125 µM (≈ 32 µg/mL); MIC (E. coli biofilm; Escherichia coli, biofilm, Thiophene analogues table, read-out: MIC E. coli Biofilm): 125 µM (≈ 32 µg/mL)
24.7 (≈ 8.01 µg/mL) | 48 | O=C(Nc1ncc([N+](=O)[O-])s1)c1cc(Cl)sc1Cl [VPC161199] | 12.3 (≈ 3.99 µg/mL) | 1.5 (≈ 0.486 µg/mL) | 2.3 (≈ 0.746 µg/mL) | 6.2 (≈ 2.01 µg/mL) | 12.3 (≈ 3.99 µg/mL) | 98.7 (≈ 32 µg/mL) | 24.7 (≈ 8.01 µg/mL) | 89 |  |  |  | 

Structure (SMILES) | MIC S. epidermidis Biofilm (S. epidermidis biofilm) [µM] | PFOR inhibition relative to nitazoxanide (=100) ([3]; Thiophene analogues table) [%] | MIC (C. difficile [1]; [4]) [µM] | MIC (H. pylori; [5]) [µM] | MIC (C. jejuni; [6]) [µM] | MIC (MRSA; [7]) [µM] | MIC (S. epidermidis; [8]) [µM] | MIC (E. coli; [9]) [µM] | MIC (E. coli biofilm; [10]) [µM] | Disk Diff (%) C. difficile (C. difficile [2]) [%] | MIC (μM) S. epidermidis Biofilm (S. epidermidis biofilm) [µM] | Disk Diffusion (%) C. difficile (C. difficile [2]) [%] | PFOR inhibition relative to nitazoxanide (=100) [3] [%] | also measured
O=C(Nc1ncc([N+](=O)[O-])s1)c1sc2cc(F)ccc2c1Cl [VPC161115] | 0.1 (≈ 0.0358 µg/mL) | 96 | 11.2 (≈ 4.01 µg/mL) | 1.0 (≈ 0.358 µg/mL) | 5.6 (≈ 2 µg/mL) | 2.1 (≈ 0.751 µg/mL) | 5.6 (≈ 2 µg/mL) | 89.4 (≈ 32 µg/mL) | 5.6 (≈ 2 µg/mL) | 44 |  |  |  | 
